Laboratory results: patent US7611696B2, “Sunscreen compositions as well as dihydropyridines and dihydropyranes” (DSM IP Assets B.V., priority 2002, dated 2009)

Columns and labels:
[1] = UV absorption (λmax and ε) of the prepared UV-A screening compounds; format: physicochemical; details: UV absorption maximum; solvent not stated

SMILES | UV: λmax [1] [nm] | melting point [°C]
CC1=CC(=C(C#N)C#N)C=C(C)N1CCC(C)CC(C)(C)C (stereo not shown) [1-N-[3,5,5-trimethylhexyl]-4-dicyanomethylene-2,6-dimethyl-1,4-dihydropyridine] | 372 | 
CCCCC(CC)COC(=O)C(C#N)=C1C=C(C)N(CCCC)C(C)=C1 (stereo not shown) [Example 7, 2-ethylhexyl (1-N-butyl-2,6-dimethyl-1H-pyridin-4-ylidene)cyanoacetate] | 374 | 69 to 70
CCC1=C(C)C(=C(C#N)C#N)C(C)=C(CC)O1 [Example 3, 2-(2,6-diethyl-3,5-dimethylpyran-4-ylidene)malononitrile] | 366 | 64 to 65
CCCCCCCCCCCCN1C(C)=CC(=C(C#N)C#N)C=C1C [1-N-dodecyl-4-dicyanomethylene-2,6-dimethyl-1,4-dihydropyridine] | 370 | 
CCCCN1C(C)=CC(=C(C#N)C#N)C=C1C [1-N-butyl-4-dicyanomethylene-2,6-dimethyl-1,4-dihydropyridine] | 370 | 
CCCCC(CC)CN1C(C)=CC(=C(C#N)C#N)C=C1C (stereo not shown) [Example 5, 1-N-(2-ethylhexyl)-4-dicyanomethylene-2,6-dimethyl-1,4-dihydropyridine] | 372 | 187
CC1=CC(=C(C#N)C#N)C=C(C)N1CCCOCCOCCOCCCN1C(C)=CC(=C(C#N)C#N)C=C1C [Example 9, 2-{1-[3-(2-{2-[3-(4-dicyanomethylene-2,6-dimethyl-4H-pyridin-1-yl)-propoxy]-ethoxy}-ethoxy)-propyl]-2,6-dimethyl-1H-pyridin-4-ylidene}-malononitrile] | 372 | 138 to 139
CCOC(=O)C(C#N)=C1C=C(C)OC(C)=C1 [Example 1, ethyl (2,6-dimethyl-pyran-4-ylidene) cyanoacetate] | 348 | 
CCCC1=C(CC)C(=C(C#N)C#N)C(CC)=C(CCC)O1 [Example 4, 2-(3,5-diethyl-2,6-dipropylpyran-4-ylidene)malononitrile] | 364 | 
CCCCC(CC)COC(=O)C(C#N)=C1C=C(C)OC(C)=C1 (stereo not shown) [Example 2, 2-ethylhexyl (2,6-dimethyl-pyran-4-ylidene) cyanoacetate] | 352 | 
CC1=CC(=C(C#N)C#N)C=C(C)N1C [1-N-methyl-4-dicyanomethylene-2,6-dimethyl-1,4-dihydropyridine] | 368 | > 250
CCCCC(CC)COCCCN1C(C)=CC(=C(C#N)C#N)C=C1C (stereo not shown) [1-N-[3-(2-ethylhexyloxy)propyl]-4-dicyanomethylene-2,6-dimethyl-1,4-dihydropyridine] | 370 | 
CCCCC(CC)COCCCN1C(C)=CC(=C(C#N)C(=O)OCC(CC)CCCC)C=C1C (stereo not shown) [Example 8, 2-ethylhexyl (1-N-[3-(2-ethylhexyloxy)propyl]-2,6-di-methyl-1H-pyridin-4ylidene)cyanoacetate] | 366 | 69 to 70
